Test results published in ChEMBL document CHEMBL5131506, “Exploration of 2-phenylquinoline-4-carboxamide linked benzene sulfonamide derivatives as isoform selective inhibitors of transmembrane human carbonic anhydrases” (Eur J Med Chem, 2022).

How the values were obtained:
[1] = target: Carbonic anhydrase 1 (Homo sapiens, UniProt P00915); assay: Inhibition of human recombinant carbonic anhydrase 1 assessed as inhibition constant incubated for 10 mins by phenol red dye based stopped-flow CO2 hydration assay
Chain of Carbonic anhydrase 1 (P00915 whole entry): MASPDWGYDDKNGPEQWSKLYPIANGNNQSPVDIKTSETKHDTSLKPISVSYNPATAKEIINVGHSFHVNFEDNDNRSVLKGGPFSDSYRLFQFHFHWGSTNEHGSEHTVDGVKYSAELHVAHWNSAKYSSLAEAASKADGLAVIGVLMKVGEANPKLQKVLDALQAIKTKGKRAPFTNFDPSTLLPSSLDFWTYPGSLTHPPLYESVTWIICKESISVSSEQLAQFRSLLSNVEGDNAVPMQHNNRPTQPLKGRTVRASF

[2] = target: Carbonic anhydrase 2 (Homo sapiens, UniProt P00918); assay: Inhibition of human recombinant carbonic anhydrase 2 assessed as inhibition constant incubated for 10 mins by phenol red dye based stopped-flow CO2 hydration assay
[3] = target: Carbonic anhydrase 12 (Homo sapiens, UniProt O43570); assay: Inhibition of human recombinant carbonic anhydrase 12 assessed as inhibition constant incubated for 10 mins by phenol red dye based stopped-flow CO2 hydration assay
Chain of Carbonic anhydrase 12 (O43570 whole entry): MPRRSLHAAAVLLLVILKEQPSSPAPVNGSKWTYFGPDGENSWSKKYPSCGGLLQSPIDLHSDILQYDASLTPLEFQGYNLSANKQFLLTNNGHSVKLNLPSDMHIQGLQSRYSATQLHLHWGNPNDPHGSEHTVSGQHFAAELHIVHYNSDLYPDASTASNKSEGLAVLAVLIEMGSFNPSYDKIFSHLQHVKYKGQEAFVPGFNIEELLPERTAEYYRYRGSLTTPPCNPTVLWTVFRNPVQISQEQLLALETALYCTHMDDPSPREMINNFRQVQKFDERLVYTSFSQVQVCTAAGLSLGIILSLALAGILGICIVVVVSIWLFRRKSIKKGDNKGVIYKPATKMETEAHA

[4] = target: Carbonic anhydrase 9 (Homo sapiens, UniProt Q16790); assay: Inhibition of human recombinant carbonic anhydrase 9 assessed as inhibition constant incubated for 10 mins by phenol red dye based stopped-flow CO2 hydration assay
[5] = target: Carbonic anhydrase 4 (Homo sapiens, UniProt P22748); assay: Inhibition of human recombinant carbonic anhydrase 4 assessed as inhibition constant incubated for 10 mins by phenol red dye based stopped-flow CO2 hydration assay
Chain of Carbonic anhydrase 4 (P22748 whole entry): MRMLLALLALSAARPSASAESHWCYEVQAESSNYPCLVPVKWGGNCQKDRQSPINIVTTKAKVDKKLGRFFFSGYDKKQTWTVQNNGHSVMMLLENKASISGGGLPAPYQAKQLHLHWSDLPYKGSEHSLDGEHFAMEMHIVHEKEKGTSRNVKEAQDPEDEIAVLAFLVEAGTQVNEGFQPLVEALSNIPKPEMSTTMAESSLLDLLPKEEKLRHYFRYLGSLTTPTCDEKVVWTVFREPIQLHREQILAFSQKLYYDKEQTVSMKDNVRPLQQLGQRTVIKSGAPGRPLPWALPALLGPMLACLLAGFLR

| Structure (SMILES) | Ki [1] [nM] | Ki [2] [nM] | Ki [3] [nM] | Ki [4] [nM] | Ki [5] [nM] |
| --- | --- | --- | --- | --- | --- |
| NS(=O)(=O)c1cc(C(=O)CSc2nc3c(cnc4ccccc43)[nH]2)ccc1Cl | 1.3 | 0.03 | 0.1 | – | – |
| O=C(/C=C/c1sc(N2CCOCC2)nc1-c1ccc([N+](=O)[O-])cc1)Nc1ccc(Br)cc1 | – | 9.3 | 8.8 | 54.7 | – |
| NS(=O)(=O)c1ccc(NC(=O)c2cc(-c3cccc(Cl)c3)nc3ccccc23)cc1 | 838 | 141 | 72.8 | 97.1 | – |
| NS(=O)(=O)c1ccc(CCNC(=O)c2cc(-c3ccccc3)nc3ccc(Cl)cc23)cc1 | 1890 | 42.9 | 6.7 | 47.6 | – |
| COc1ccc2nc(-c3ccc(Cl)cc3Cl)cc(C(=O)NCCc3ccc(S(N)(=O)=O)cc3)c2c1 | 6340 | 674 | 438 | 73.8 | – |
| COc1ccc2nc(-c3ccc(OC)c(OC)c3)cc(C(=O)NCCc3ccc(S(N)(=O)=O)cc3)c2c1 | 5540 | 588 | 218 | 70.3 | – |
| COc1ccc2nc(-c3ccccc3OC)cc(C(=O)NCCc3ccc(S(N)(=O)=O)cc3)c2c1 | 902 | 382 | 851 | 67.7 | – |
| COc1ccc2nc(-c3ccccc3)cc(C(=O)Nc3ccc(S(N)(=O)=O)cc3)c2c1 | 535 | 91.3 | 56.7 | 35.7 | – |
| COc1ccc(-c2cc(C(=O)Nc3cccc(S(N)(=O)=O)c3)c3ccccc3n2)cc1OC | 888 | 388 | 76.2 | 78.2 | – |
| NS(=O)(=O)c1cccc(NC(=O)c2cc(-c3ccccc3)nc3ccc(Cl)cc23)c1 | 6600 | 172 | 71.1 | 330 | – |
| COc1ccc(-c2cc(C(=O)Nc3ccc(S(N)(=O)=O)cc3)c3cc(Cl)ccc3n2)cc1OC | 797 | 305 | 215 | 309 | – |
| COc1ccc2nc(-c3ccc(Cl)cc3Cl)cc(C(=O)Nc3cccc(S(N)(=O)=O)c3)c2c1 | 896 | 61.7 | 64.8 | 93.5 | – |
| COc1ccc2nc(-c3ccc(OC)c(OC)c3)cc(C(=O)Nc3ccc(S(N)(=O)=O)cc3)c2c1 | 416 | 26.2 | 75.5 | 9.1 | – |
| Cc1ccc(-c2cc(C(=O)Nc3cccc(S(N)(=O)=O)c3)c3cc(Cl)ccc3n2)cc1 | 3940 | 293 | 757 | 245 | – |
| COc1ccc2nc(-c3ccccc3C)cc(C(=O)Nc3ccc(S(N)(=O)=O)cc3)c2c1 | 555 | 28.5 | 46.9 | 21.4 | – |
| NS(=O)(=O)c1ccc(NC(=O)Cn2cc(/C=C/C(=O)c3cccc(C(F)(F)F)c3)c3ccccc32)cc1 | – | 2.3 | – | 31 | – |
| NS(=O)(=O)c1cccc(NC(=O)c2cc(-c3ccccc3)nc3ccccc23)c1 | 966 | 298 | 9.6 | 67.4 | – |
| COc1ccc(-c2cc(C(=O)Nc3cccc(S(N)(=O)=O)c3)c3cc(Cl)ccc3n2)cc1OC | 831 | 253 | 423 | 247 | – |

| Structure (SMILES) | Ki [1] [nM] | Ki [2] [nM] | Ki [3] [nM] | Ki [4] [nM] | Ki [5] [nM] |
| --- | --- | --- | --- | --- | --- |
| NS(=O)(=O)c1cccc(NC(=O)c2cc(-c3ccc4c(c3)OCO4)nc3ccccc23)c1 | 1460 | 478 | 88.9 | 65.4 | – |
| COc1ccc(-c2cc(C(=O)NCCc3ccc(S(N)(=O)=O)cc3)c3ccccc3n2)cc1OC | 91.8 | 35.2 | 88.5 | 9.7 | – |
| NS(=O)(=O)c1cccc(NC(=O)c2cc(-c3cccc(Br)c3)nc3ccccc23)c1 | 854 | 156 | 341 | 91.3 | – |
| NS(=O)(=O)c1cccc(NC(=O)c2cc(-c3cccc(C(F)(F)F)c3)nc3ccccc23)c1 | 3770 | 87.8 | 365 | 64.6 | – |
| NS(=O)(=O)c1ccc(CCNC(=O)c2cc(-c3ccc4c(c3)OCO4)nc3ccccc23)cc1 | 3620 | 18.3 | 555 | 22.8 | – |
| NS(=O)(=O)c1ccc(CCNC(=O)c2cc(-c3ccccc3)nc3ccc(Br)cc23)cc1 | 6280 | 867 | 758 | 58.8 | – |
| NS(=O)(=O)c1ccc(NC(=O)c2cc(-c3cccc(C(F)(F)F)c3)nc3ccccc23)cc1 | 659 | 262 | 169 | 421 | – |
| NS(=O)(=O)c1ccc(NC(=O)c2cc(-c3ccc4c(c3)OCO4)nc3ccccc23)cc1 | 256 | 7.1 | 72.1 | 6.5 | – |
| COc1ccc(-c2cc(C(=O)Nc3ccc(S(N)(=O)=O)cc3)c3ccccc3n2)c(OC)c1 | 5320 | 598 | 261 | 93.2 | – |
| NS(=O)(=O)c1ccc(CCNC(=O)c2cc(-c3cccc(Br)c3)nc3ccccc23)cc1 | 977 | 9.6 | 30.9 | 39.3 | – |
| COc1ccc2nc(-c3ccccc3OC)cc(C(=O)Nc3ccc(S(N)(=O)=O)cc3)c2c1 | 283 | 44.5 | 8.8 | 37.2 | – |
| CCN(C1CC(C)S(=O)(=O)c2sc(S(N)(=O)=O)cc21)S(=O)(=O)c1cccc2cccnc12 (stereo not drawn) | – | 5 | – | – | 10 |
| NS(=O)(=O)c1cccc(NC(=O)c2cc(-c3cccc(Cl)c3)nc3ccc(Cl)cc23)c1 | 848 | 257 | 527 | 349 | – |
| NS(=O)(=O)c1ccc(CCNC(=O)c2cc(-c3cccc(C(F)(F)F)c3)nc3ccccc23)cc1 | 1820 | 91.1 | 6.9 | 74.2 | – |
| COc1ccc2nc(-c3ccccc3)cc(C(=O)NCCc3ccc(S(N)(=O)=O)cc3)c2c1 | 933 | 487 | 391 | 75.5 | – |
| COc1ccc2nc(-c3ccc(OC)c(OC)c3)cc(C(=O)Nc3cccc(S(N)(=O)=O)c3)c2c1 | 665 | 97.8 | 426 | 51.3 | – |
| NS(=O)(=O)c1ccc(NC(=O)c2cc(-c3ccccc3)nc3ccccc23)cc1 | 537 | 54.7 | 130 | 70.4 | – |
| COc1ccc(-c2cc(C(=O)NCCc3ccc(S(N)(=O)=O)cc3)c3cc(Cl)ccc3n2)cc1OC | 765 | 187 | 302 | 91.6 | – |
